In paper PMC4474874, “Effect of JAK Inhibitors on Release of CXCL9, CXCL10 and CXCL11 from Human Airway Epithelial Cells” (PLoS ONE, 2015):

Key:
[1] = system: human primary airway epithelial cells; experiment: IL-6 release from IFNγ + TNFα-stimulated human primary airway epithelial cells; format: cell-based; settings: IFNγ + TNFα
Procedure: (§1) In order to determine whether any of the inhibitory effects of the JAK inhibitors could be attributed to cell death, MTT assays were performed at the end of every experiment. […] In order to address this issue, the levels of IL-6 released from cells stimulated with IFNγ + TNFα were measured.

BEAS-2B cells [2] = experiment: mRNA expression of CXCL9, CXCL10 and CXCL11 in BEAS-2B cells (Taqman RT-PCR); format: cell-based, human; settings: BEAS-2B, 10^-6M, IFNγ or IFNγ + TNFα
Procedure: Total RNA was extracted from cells and reverse transcribed, as described previously. Gene expression was determined by Taqman real-time PCR on a 7500 Real Time PCR system (Applied Biosystems, Life Technologies Ltd, Paisley, UK) using PCR Master Mix Reagent and ‘assays on demand’ (Applied Biosystems). HPRT1 gene expression was used as the housekeeping gene and data presented as δδCT relative to baseline.
Gene expression of CXCL9 (panels a and b), CXCL10 (panels c and d) and CXCL11 (panels e and f) were quantified by Taqman RT-PCR. Data are presented as fold change form stimulus ± SEM; n = 3 where 1 indicates the level of mRNA induced by IFNγ or IFNγ + TNFα in the absence of inhibitors.

BEAS-2B cells [3] = experiment: IL-6 release from IFNγ + TNFα-stimulated BEAS-2B cells; format: cell-based, human
Procedure: as §1

[4] = system: human primary airway epithelial cells; experiment: Release of CXCL9, CXCL10 and CXCL11 from human primary airway epithelial cells (ELISA); format: cell-based; settings: human primary airway epithelial cells, IFNγ or IFNγ+TNFα
Procedure: (§2) BEAS-2B cells (catalogue number CRL-9609) were purchased directly from American Type Culture Collection (Rockville, MD). Keratinocyte serum-free medium (K-SFM), bovine pituitary extract (BPE), and recombinant human epidermal growth factor (EGF) were purchased from Invitrogen (Paisley, UK). BEAS-2B cells were cultured in K-SFM containing 50 μg/ml BPE and 5 ng/ml EGF at 37°C in a humidified atmosphere comprising 5% (v/v) CO2 in air. Cells were cultured as monolayers in growth factor-free media for 24 h prior to stimulation. Human primary airway epithelial cells were cultured as monolayers from bronchial brushings from both male and female subjects (Table 1) and cultured in LHC-9 media (Invitrogen, Paisley, UK) in collagen (1% w/v) coated flasks. Samples were obtained from non-smokers, smokers and patients with COPD. […] The subjects were matched for age and smokers and COPD patients for smoking history (Table 1). All subjects gave informed written consent and the study was approved by the NRES London-Chelsea Research Ethics committee, study number 09/H0801/85.
(§3) Cell-free supernatants were removed 20h post-stimulation and assayed for CXCL9, CXCL10 and CXCL11 using Duoset ELISA kits (R & D Systems Europe, Abingdon, UK) according to the manufacturer’s instructions. The detection limits of these assays are 62pg/ml, 31pg/ml, and 7.8 pg/ml respectively.
(§4) Data are presented as mean ± SEM of ‘n’ independent determinations. Concentration-response curves were analysed by least-squares, non-linear iterative regression with the ‘Graphpad Prism’ curve fitting program (GraphPad software, San Diego, USA) and IC50 values were subsequently interpolated from curves of best-fit. Statistical differences were determined using the Kruskal–Wallis test followed by Dunn's multiple comparison test or a Wilcoxon signed rank test as appropriate. Values of P<0.05 were considered significant.
Media was harvested and the concentrations of CXCL9 (panels a and d), CXCL10 (panels b and e) and CXCL11 (panels c and f) were measured by ELISA. Data are presented as mean ± SEM, n = 10–13.

BEAS-2B cells [5] = experiment: Release of CXCL9, CXCL10 and CXCL11 from BEAS-2B cells (ELISA), inhibitors added 1h before stimulus; format: cell-based, human; settings: BEAS-2B
Procedure: as §2, §3, §4
Media was harvested and the concentrations of CXCL9 (panels a and d), CXCL10 (panels b and e) and CXCL11 (panels c and f) were measured by ELISA. Data are presented as mean±SEM, n = 7–8.

Which IC50 ([1]; Homo sapiens, Epithelial cell) does the source give for C[C@@H]1C[C@H]2[C@@H]3CCC4=CC(=O)C=C[C@]4(C)[C@@]3(F)[C@@H](O)C[C@]2(C)[C@@]1(O)C(=O)CO [dexamethasone] here?
The IC50 was 11 ± 7 nM.

And the “suppression of IL-6 release” value [1]?
The value was 50–70%.

What about the “effect on gene transcription of CXCL9, CXCL10 and CXCL11” value (BEAS-2B cells [2]) of the same molecule?
The value was “no effect on gene transcription”.

What about the “suppression of IL-6 release” value (BEAS-2B cells [3]) of the same molecule?
Its value is 50–70%.

What about the IC50 (BEAS-2B cells [3]; Homo sapiens) of the same molecule?
Its IC50 is 16 ± 8 nM.

What about the “effect on CXCR3 chemokine release” value [4] of the same molecule?
The value was “did not suppress”.

What about the “effect on CXCL9 and CXCL11 release” value (BEAS-2B cells [5]; IFNγ or IFNγ+TNFα) of the same molecule?
Its value is “very limited effect”.

What about the “maximal inhibitory effect on release of CXCL10” value (BEAS-2B cells [5]; IFNγ-stimulated) of the same molecule?
Its value is ~ 50%.

What about the “inhibitory effect on release of CXCL10” value (BEAS-2B cells [5]; stimulation with IFNγ and TNFα together) of the same molecule?
The value was “none”.
